Reference: ChEMBL document CHEMBL1136209, “Bone-targeted 2,6,9-trisubstituted purines: novel inhibitors of Src tyrosine kinase for the treatment of bone diseases” (Bioorg Med Chem Lett, 2003)

Legend:
[1] = Compound was tested for its relative bone-targeting affinity using a hydroxyapatite column
[2] = biological target: T1, Cyclin-dependent kinase 2 (Homo sapiens, UniProt P24941); assay: Inhibition of Cyclin-dependent kinase 2 (CDK2)
[3] = biological target: Casein kinase II (Homo sapiens) (UniProt P67870+P68400+P19784); assay: Selectivity for casein kinase II, CK2; assay type: protein-complex assay
[4] = biological target: Cyclin-dependent kinase 1 (Homo sapiens) (UniProt P06493); assay: Selectivity for cyclin-dependent kinase-1, CDK1
[5] = biological target: T1, Cyclin-dependent kinase 2; assay: Selectivity for cyclin-dependent kinase 2, CDK2
[6] = biological target: DNA-dependent protein kinase catalytic subunit (Homo sapiens) (UniProt P78527); assay: Selectivity for Protein kinase, DNAPK
[7] = biological target: Cyclin-dependent kinase 5 (Homo sapiens) (UniProt Q00535); assay: Selectivity for cyclin-dependent kinase-5, CDK5
[8] = Selectivity towards Protein kinase, EST-PT1
[9] = biological target: Mitogen-activated protein kinase 3 (Homo sapiens) (UniProt P27361); assay: Selectivity for mitogen-activated protein kinase, ERK1
[10] = biological target: Tyrosine-protein kinase Fyn (Homo sapiens) (UniProt P06241); assay: Selectivity for Fyn kinase
[11] = biological target: Glycogen synthase kinase-3 beta (Homo sapiens) (UniProt P49841); assay: Selectivity for GSK3-beta
[12] = biological target: T2, Scaffold protein ILK (Homo sapiens) (UniProt Q13418); assay: Selectivity towards Protein kinase, ILK1
T2 sequence (whole entry): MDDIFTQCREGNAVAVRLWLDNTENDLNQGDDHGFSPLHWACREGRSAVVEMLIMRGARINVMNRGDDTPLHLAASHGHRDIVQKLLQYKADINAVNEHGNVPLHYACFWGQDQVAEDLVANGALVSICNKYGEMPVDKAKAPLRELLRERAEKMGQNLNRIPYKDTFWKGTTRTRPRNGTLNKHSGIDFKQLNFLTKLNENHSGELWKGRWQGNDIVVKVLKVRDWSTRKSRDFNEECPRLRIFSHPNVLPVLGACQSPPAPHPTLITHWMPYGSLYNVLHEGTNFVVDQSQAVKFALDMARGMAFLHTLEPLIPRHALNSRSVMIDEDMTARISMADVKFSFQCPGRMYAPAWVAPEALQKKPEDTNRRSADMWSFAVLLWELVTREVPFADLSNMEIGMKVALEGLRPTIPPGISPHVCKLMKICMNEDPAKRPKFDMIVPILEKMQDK

[13] = biological target: Receptor-type tyrosine-protein phosphatase F (Homo sapiens) (UniProt P10586); assay: Selectivity towards Protein phosphatase, LAR
[14] = Selectivity towards Protein phosphatase, MEG2
[15] = biological target: Serine/threonine-protein kinase pim-1 (Homo sapiens) (UniProt P11309); assay: Selectivity towards Protein kinase, PIM1
[16] = biological target: Serine/threonine-protein kinase PAK 3 (Homo sapiens) (UniProt O75914); assay: Selectivity for p21-activated kinase-3, PAK3
[17] = biological target: cAMP-dependent protein kinase (PKA) (Homo sapiens) (UniProt P22694+P17612+P22612); assay: Selectivity for PKA; assay type: protein assay
[18] = biological target: Protein kinase C (PKC) (Homo sapiens) (UniProt O94806+P41743+P17252+P05129+Q05655+P05771+Q05513+Q02156+P24723+Q15139+Q04759); assay: Selectivity for Protein kinase, PKC; assay type: protein assay
[19] = biological target: T3, Tyrosine-protein phosphatase non-receptor type 1 (Homo sapiens) (UniProt P18031); assay: Selectivity towards Protein phosphatase, PTP1b
T3 sequence (whole entry): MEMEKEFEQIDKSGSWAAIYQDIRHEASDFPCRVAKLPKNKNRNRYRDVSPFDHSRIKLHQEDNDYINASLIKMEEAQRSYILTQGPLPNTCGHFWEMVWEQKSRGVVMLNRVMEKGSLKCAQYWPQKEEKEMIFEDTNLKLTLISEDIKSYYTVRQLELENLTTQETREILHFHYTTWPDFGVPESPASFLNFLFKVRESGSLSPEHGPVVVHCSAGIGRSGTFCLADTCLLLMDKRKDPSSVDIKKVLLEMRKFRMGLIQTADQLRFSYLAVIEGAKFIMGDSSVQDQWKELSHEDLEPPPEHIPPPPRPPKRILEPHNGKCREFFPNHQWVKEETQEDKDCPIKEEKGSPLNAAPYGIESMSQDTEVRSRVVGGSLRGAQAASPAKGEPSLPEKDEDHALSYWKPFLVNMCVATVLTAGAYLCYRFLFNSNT

[20] = biological target: T4, Serine/threonine-protein kinase 3 (Homo sapiens) (UniProt Q13188); assay: Selectivity for Serine/threonine kinase 3
T4 sequence (whole entry): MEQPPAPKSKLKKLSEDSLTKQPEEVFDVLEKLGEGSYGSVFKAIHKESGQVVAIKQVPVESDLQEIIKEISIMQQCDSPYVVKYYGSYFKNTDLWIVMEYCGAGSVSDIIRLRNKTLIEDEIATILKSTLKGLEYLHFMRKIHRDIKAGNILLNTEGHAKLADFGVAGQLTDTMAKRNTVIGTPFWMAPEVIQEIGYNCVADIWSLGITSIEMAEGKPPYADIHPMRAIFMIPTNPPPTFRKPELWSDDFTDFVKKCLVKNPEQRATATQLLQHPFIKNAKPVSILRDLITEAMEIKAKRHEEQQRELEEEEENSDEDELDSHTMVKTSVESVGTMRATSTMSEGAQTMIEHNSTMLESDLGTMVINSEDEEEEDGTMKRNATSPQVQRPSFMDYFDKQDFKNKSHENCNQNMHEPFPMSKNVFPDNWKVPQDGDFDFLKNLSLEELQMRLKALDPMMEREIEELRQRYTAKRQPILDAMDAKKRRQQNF

[21] = biological target: Tyrosine-protein kinase CSK (Homo sapiens) (UniProt P41240); assay: Selectivity over Protein kinase CSK (100-500)
[22] = biological target: Wee1-like protein kinase (Homo sapiens) (UniProt P30291); assay: Selectivity for Protein kinase WEE1
[23] = biological target: Tyrosine-protein kinase Lck (Homo sapiens) (UniProt P06239); assay: Selectivity p56 Lck tyrosine kinase
[24] = biological target: Serine/threonine-protein kinase pim-1 (Homo sapiens) (UniProt P11309); assay: Selectivity for pim-1 oncogene
[25] = Selectivity towards Protein phosphatase, TC-PTP

Chain of Serine/threonine-protein kinase pim-1 (Homo sapiens) (P11309 whole entry, looked up): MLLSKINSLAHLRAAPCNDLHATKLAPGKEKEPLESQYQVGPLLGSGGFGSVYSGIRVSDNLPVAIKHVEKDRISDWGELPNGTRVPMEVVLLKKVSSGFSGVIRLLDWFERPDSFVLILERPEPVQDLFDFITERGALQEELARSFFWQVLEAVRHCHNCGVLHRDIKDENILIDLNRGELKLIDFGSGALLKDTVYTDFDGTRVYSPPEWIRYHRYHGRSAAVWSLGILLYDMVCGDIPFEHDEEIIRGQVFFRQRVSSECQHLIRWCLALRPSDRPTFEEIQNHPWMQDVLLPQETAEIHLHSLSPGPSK
Chain of Receptor-type tyrosine-protein phosphatase F (Homo sapiens) (P10586 whole entry): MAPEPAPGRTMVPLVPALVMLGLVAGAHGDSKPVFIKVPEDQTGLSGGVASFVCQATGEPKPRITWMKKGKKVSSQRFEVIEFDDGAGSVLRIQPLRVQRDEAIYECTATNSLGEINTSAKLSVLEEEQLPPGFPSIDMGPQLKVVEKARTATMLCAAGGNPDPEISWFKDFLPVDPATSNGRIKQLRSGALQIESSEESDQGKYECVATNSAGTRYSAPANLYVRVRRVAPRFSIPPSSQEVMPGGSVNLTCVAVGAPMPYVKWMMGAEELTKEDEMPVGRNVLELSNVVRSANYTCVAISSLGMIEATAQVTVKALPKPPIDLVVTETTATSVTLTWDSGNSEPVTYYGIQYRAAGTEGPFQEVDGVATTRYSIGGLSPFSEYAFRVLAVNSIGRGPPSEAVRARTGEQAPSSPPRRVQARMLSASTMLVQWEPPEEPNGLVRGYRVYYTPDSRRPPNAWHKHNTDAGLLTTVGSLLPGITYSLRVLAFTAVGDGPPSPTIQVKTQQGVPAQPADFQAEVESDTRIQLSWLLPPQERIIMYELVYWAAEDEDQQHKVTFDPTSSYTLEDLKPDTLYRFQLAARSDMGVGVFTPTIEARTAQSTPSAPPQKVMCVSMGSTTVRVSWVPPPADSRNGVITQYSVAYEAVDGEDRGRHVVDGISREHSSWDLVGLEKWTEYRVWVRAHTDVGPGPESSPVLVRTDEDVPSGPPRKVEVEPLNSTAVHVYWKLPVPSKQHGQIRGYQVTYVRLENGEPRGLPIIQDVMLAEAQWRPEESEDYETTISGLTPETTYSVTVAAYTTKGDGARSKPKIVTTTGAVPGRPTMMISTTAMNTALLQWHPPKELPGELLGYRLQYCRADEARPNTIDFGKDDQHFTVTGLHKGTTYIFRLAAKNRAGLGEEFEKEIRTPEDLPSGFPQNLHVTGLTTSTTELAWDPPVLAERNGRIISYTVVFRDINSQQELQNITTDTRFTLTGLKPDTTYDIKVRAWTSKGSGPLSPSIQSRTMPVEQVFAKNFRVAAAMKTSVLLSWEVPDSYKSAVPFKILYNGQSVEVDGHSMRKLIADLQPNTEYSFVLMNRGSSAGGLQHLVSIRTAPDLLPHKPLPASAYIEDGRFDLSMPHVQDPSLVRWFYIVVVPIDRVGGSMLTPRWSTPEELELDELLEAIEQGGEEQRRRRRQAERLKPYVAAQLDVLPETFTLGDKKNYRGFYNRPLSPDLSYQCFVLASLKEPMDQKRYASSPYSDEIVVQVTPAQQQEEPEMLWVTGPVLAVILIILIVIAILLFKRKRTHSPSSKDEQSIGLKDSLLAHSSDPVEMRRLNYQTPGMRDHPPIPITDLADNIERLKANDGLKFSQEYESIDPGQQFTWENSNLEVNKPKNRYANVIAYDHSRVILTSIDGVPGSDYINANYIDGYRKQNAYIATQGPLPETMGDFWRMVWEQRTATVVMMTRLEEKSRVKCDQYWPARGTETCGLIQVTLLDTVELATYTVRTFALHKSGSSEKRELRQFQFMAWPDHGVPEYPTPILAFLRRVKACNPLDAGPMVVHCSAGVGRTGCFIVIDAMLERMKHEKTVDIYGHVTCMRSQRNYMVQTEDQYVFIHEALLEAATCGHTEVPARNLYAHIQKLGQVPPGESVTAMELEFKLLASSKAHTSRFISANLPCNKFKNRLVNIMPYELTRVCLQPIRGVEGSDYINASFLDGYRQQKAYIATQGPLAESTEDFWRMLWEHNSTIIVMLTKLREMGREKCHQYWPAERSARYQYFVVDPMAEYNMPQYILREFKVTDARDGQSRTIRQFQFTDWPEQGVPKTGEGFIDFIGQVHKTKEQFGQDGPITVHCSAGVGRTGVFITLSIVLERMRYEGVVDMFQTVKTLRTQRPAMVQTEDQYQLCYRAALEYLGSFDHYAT
Chain of Tyrosine-protein kinase Fyn (Homo sapiens) (P06241 2-537 limits assumed): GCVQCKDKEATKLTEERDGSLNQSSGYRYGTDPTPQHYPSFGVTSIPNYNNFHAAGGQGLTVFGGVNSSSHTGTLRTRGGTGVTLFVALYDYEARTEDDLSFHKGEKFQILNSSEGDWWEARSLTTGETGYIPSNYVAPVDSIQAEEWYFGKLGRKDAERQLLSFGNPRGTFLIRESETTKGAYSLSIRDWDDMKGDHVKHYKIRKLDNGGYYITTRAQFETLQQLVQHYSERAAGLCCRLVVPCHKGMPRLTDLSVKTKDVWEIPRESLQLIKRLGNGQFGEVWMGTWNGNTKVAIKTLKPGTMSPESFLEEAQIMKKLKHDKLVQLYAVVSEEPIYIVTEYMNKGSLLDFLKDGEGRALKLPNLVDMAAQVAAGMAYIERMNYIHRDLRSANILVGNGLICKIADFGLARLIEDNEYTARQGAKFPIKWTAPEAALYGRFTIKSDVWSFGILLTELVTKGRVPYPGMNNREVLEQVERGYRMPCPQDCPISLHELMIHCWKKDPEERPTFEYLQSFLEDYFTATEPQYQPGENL
Chain of Glycogen synthase kinase-3 beta (Homo sapiens) (P49841 whole entry, looked up): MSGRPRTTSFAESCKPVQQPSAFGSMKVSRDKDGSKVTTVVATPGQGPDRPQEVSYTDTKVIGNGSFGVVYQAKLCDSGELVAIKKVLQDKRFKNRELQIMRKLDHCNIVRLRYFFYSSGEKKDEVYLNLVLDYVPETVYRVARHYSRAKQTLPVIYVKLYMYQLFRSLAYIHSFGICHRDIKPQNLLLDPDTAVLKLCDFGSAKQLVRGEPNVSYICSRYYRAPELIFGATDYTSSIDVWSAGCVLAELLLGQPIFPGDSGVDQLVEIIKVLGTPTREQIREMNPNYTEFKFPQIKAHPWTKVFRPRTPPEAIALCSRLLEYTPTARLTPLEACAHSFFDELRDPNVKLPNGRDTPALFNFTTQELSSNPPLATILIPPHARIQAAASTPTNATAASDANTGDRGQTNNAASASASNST
Chain of Tyrosine-protein kinase CSK (Homo sapiens) (P41240 2-450 limits assumed): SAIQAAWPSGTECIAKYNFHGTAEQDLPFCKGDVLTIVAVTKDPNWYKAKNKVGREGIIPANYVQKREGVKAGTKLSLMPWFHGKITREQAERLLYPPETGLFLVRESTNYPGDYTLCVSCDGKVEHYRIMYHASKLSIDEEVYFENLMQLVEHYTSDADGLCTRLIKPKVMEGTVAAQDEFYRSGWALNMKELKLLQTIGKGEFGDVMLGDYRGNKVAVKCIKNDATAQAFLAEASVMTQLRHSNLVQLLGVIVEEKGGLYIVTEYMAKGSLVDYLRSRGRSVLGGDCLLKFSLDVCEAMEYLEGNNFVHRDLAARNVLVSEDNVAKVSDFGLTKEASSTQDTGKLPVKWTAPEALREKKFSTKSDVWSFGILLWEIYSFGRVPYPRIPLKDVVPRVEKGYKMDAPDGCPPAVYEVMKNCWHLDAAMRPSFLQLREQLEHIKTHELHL
Chain of Tyrosine-protein kinase Lck (Homo sapiens) (P06239 2-509 limits assumed): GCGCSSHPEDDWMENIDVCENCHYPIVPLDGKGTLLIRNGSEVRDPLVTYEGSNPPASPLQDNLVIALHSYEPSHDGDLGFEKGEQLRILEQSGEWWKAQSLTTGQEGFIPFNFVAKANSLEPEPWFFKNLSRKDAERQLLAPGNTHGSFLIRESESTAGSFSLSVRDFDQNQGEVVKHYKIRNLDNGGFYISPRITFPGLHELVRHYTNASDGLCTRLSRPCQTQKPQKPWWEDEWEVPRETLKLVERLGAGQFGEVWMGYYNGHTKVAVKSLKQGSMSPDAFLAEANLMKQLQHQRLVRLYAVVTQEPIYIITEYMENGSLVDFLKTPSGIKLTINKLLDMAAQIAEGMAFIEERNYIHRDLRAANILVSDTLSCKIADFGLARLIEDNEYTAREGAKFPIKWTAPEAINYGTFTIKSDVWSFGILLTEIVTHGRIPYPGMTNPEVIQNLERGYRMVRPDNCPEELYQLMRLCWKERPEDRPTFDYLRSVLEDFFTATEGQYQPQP
Chain of Wee1-like protein kinase (Homo sapiens) (P30291 whole entry, looked up): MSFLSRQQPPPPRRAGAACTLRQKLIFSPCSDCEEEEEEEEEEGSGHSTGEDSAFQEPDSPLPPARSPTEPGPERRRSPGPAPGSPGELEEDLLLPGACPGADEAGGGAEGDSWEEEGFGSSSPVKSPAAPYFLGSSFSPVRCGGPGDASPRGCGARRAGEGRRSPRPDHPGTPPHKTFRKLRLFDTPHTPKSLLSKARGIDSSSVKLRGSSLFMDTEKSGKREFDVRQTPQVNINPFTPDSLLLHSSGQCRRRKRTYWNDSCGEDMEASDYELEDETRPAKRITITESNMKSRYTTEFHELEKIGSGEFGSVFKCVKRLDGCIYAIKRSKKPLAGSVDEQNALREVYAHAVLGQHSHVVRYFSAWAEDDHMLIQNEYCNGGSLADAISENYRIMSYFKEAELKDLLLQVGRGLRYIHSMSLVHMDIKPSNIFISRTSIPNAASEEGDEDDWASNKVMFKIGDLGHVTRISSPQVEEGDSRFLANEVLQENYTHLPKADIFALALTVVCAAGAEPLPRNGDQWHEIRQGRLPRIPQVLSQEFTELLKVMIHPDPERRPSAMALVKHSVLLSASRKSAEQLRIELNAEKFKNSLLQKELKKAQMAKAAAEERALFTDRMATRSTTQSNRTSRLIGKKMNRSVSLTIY

Compound: O=P(O)(O)CP(=O)(O)CCCNc1nc(Nc2ccccc2)c2ncn(C3CCCC3)c2n1
- K' [1]: 2.3

Compound: N[C@H]1CC[C@H](Nc2nc(Nc3ccc(P(=O)(O)O)c(P(=O)(O)O)c3)c3ncn(C4CCCC4)c3n2)CC1
- K' [1]: 1.8

Compound: CC(C)[C@H](CO)Nc1nc(Nc2cccc(Cl)c2)c2ncn(C(C)C)c2n1 [PURVALANOLA]
- IC50 [2]: 4 nM

Compound: CN(C)CCNc1nc(Nc2ccccc2)c2ncn(C3CCCC3)c2n1
- K' [1]: 0

Compound: N[C@H]1CC[C@H](Nc2nc(Nc3ccc(P(=O)(O)CP(=O)(O)O)cc3)c3ncn(C4CCCC4)c3n2)CC1
- Selectivity [3]: > 500
- Selectivity [4]: 10
- Selectivity [5]: 10
- Selectivity [6]: > 500
- Selectivity [7]: 10
- Selectivity [8]: > 500
- Selectivity [9]: > 500
- Selectivity [10]: 1
- Selectivity [11]: > 500
- Selectivity [12]: > 500
- Selectivity [13]: > 500
- Selectivity [14]: > 500
- Selectivity [15]: > 500
- Selectivity [16]: 100
- Selectivity [17]: > 500
- Selectivity [18]: > 500
- Selectivity [19]: > 500
- Selectivity [20]: > 500
- Selectivity [21]: 100
- Selectivity [22]: > 500
- Selectivity [23]: 100
- K' [1]: 2.5
- Selectivity [24]: > 500
- Selectivity [25]: > 500

Compound: N[C@H]1CC[C@H](Nc2nc(Nc3ccccc3)c3ncn(C4CCCC4)c3n2)CC1
- K' [1]: 0

Compound: N[C@H]1CC[C@H](Nc2nc(Nc3ccc(C(P(=O)(O)O)P(=O)(O)O)cc3)c3ncn(C4CCCC4)c3n2)CC1
- K' [1]: 3.3

Compound: O=P(O)(O)C(O)(CCCNc1nc(Nc2ccccc2)c2ncn(C3CCCC3)c2n1)P(=O)(O)O
- K' [1]: 3.6
